Experimental data: patent US4617290A, “Synergistine derivatives, their preparation and pharmaceutical compositions containing them” (Rhone-Poulenc Sante, priority 1983, dated 1986)

Format: physicochemical
Protocol: The new compounds of the invention have the considerable advantage of being soluble or capable of being solubilized in water, either in the form of parent substances or in the form of salts, at therapeutically useful levels, while at the same time retaining the general spectrum of antibacterial activity of synergistines. They are especially active in vitro against Staphylococcus aureus Smith at concentrations of between 8 and 125 μg/ml. A 10% aqueous solution of 5γ-deoxy-5γ-(3-dimethylaminopropyl)aminopristinamycin IA (product A) in the form of the hydrochloride is obtained with: […]

## 5γ-[N-(carboxymethyl)-methylamino]-5γ-deoxypristinamycin IA [product K]
  concentration of aqueous solution obtained: 2%
